# Source: patent US20060166287A1, “Method for Identifying compounds for suppressing metastasizing tumor cells” (priority 2002, published 2006)
# Test system: c-Met
# Test: c-Met activation (ERK phosphorylation) by pro-HGF versus active HGF in HT29 and BSp73Asv4-7Δ15 cell lines, Western blot
# Type: cell-based
# Conditions: HT29 and BSp73Asv4-7Δ15 cells with competent CD44 isoforms, FIG. 5
# Description: HGF/SF is secreted as single-stranded precursor which is processed by serum proteinases (Shimomura, 1995) or plasminogen activators of the urokinase type (Naldini, 1995) into an active a form and β subunits. Investigations into whether CD44 is involved in the activation of HGF was employed HGF precursor which was purchased and isolated from Drosophila Schneider cells (S2) for the activation of c-Met (FIG. 5).
# (B) Western blot analyses to investigate the cleavage of the precursors pro-HGF (HGFp; enriched from Drosophila Schneider cells (S2)) into the active form HGFa by means of CD44 in the HT29 and BSp73Asv4-7Δ15 cell lines. The pro form is unable, despite the presence of competent CD44 isoforms, to mediate ERK phosphorylation by c-Met activation. In contrast thereto, processed, active HGF is capable, with the assistance of competent CD44 isoforms, of c-Met activation.
# (C) Western blot analysis to investigate the cleavage of the precursor pro-HGF (HGFp; commercial) into the active form HGFa by means of CD44 in the HT29 and BSp73Asv4-7Δ15 cell lines. The pro form is unable, despite the presence of competent CD44-isoforms, to mediate ERK phosphorylation by c-Met activation. In contrast thereto, processed, active HGF is capable, with the assistance of competent CD44 isoforms, of c-Met activation.
substance,measurement,setting,value
"pro-HGF: single-stranded HGF/SF precursor, purchased or isolated from Drosophila Schneider cells (S2)",Ability to activate c-Met / mediate ERK phosphorylation,,unable
same,Ability to activate c-Met / mediate ERK phosphorylation,listed as pro form of HGF,unable to activate c-Met
